Source: patent publication US10538555B2, “Macrocyclic inhibitors of the PD-1/PD-L1 and CD80(B7-1)/PD-L1 protein/protein interactions” (BRISTOL-MYERS SQUIBB COMPANY, priority 2014, dated 2020)
Where a SMILES comes first, the peptide text is derived from it. Bridges are numbered along the chain shown (N, C = ends). [ ]: non-standard residue; d: D form. Trp(1-CH2COOH) = N[C@@H](Cc1cn(CC(=O)O)c2ccccc12)C(=O)O; Hyp = O=C(O)[C@@H]1C[C@@H](O)CN1; NMeNle = CCCC[C@H](NC)C(=O)O; NMeA = CN[C@@H](C)C(=O)O; Dab = NCC[C@H](N)C(=O)O; Dap = NC[C@H](N)C(=O)O

Molecular target: T1, Human PD-L1/PD-1 (Homo sapiens, UniProt Q9NZQ7)
T1 construct: TVMV protease cleavage site (C); made in house; host or cells: HEK293T cells
T1 sequence (Q9NZQ7 with tags, fused parts or gaps): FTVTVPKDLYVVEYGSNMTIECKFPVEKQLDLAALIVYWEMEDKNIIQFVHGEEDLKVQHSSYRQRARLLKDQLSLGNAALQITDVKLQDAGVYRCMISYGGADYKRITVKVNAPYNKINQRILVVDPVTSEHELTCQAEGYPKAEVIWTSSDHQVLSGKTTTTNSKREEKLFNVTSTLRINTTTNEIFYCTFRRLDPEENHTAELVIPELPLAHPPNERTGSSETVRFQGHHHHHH
Experiment: HTRF Human PD-L1/PD-1 binding assay (PD-1-Ig/PD-L1-His)
Details: PD-L1-His 10 nM, PD-1-Ig 20 nM; class symbol; read-out: HTRF Human PD-L1/PD-1 Binding Assay IC50 Range
Outline: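 Inhibitors were preincubated 15 min with human PD-L1(18-239)-His (10 nM final), then PD-1(25-167)-Ig (20 nM final) was added for 15 min in dPBS/0.1% BSA/0.05% Tween-20. Eu-cryptate anti-Ig (1 nM) and APC anti-His (20 nM) were added; 665/620 nm ratio read after 30 min.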

Compound	IC50 [nM]
CCCC[C@H]1C(=O)N(C)[C@@H](CCCC)C(=O)N[C@@H](CCC(=O)O)C(=O)N[C@H](C(=O)NCC(N)=O)CSCC(=O)N[C@@H](Cc2ccc(O)cc2)C(=O)N(C)[C@@H](C)C(=O)N[C@@H](CC(N)=O)C(=O)N2CCC[C@H]2C(=O)N[C@@H](CO)C(=O)N[C@@H](CCC(N)=O)C(=O)N2C[C@H](O)C[C@H]2C(=O)N[C@@H](Cc2c[nH]c3ccccc23)C(=O)N[C@@H](CCC(=O)O)C(=O)N[C@@H](Cc2c[nH]c3ccccc23)C(=O)N1C [Example 5240] ({CH2CO}-Y[NMeA]NPSQ[Hyp]WEW[NMeNle][NMeNle]ECG-NH2; thioether N-14)	1 to 9.9
CCCC[C@H]1C(=O)N(C)[C@@H](CCCC)C(=O)N[C@@H](CC(C)C)C(=O)N[C@H](C(=O)NCC(N)=O)CSCC(=O)N[C@@H](Cc2ccc(O)cc2)C(=O)N(C)[C@@H](C)C(=O)N[C@@H](CC(N)=O)C(=O)N2CCC[C@H]2C(=O)N[C@@H](Cc2cnc[nH]2)C(=O)N[C@@H](CCC(N)=O)C(=O)N2C[C@H](O)C[C@H]2C(=O)N[C@@H](Cc2c[nH]c3ccccc23)C(=O)N[C@@H](CCN)C(=O)N[C@@H](Cc2cn(CC(=O)O)c3ccccc23)C(=O)N1C [Example 5241] ({CH2CO}-Y[NMeA]NPHQ[Hyp]W[Dab][Trp(1-CH2COOH)][NMeNle][NMeNle]LCG-NH2; thioether N-14)	10 to 99.9
CCCC[C@H]1C(=O)N(C)[C@@H](CCCC)C(=O)N[C@@H](CCC(=O)O)C(=O)N[C@H](C(=O)NCC(N)=O)CSCC(=O)N[C@@H](Cc2ccc(O)cc2)C(=O)N(C)[C@@H](C)C(=O)N[C@@H](CC(N)=O)C(=O)N2CCC[C@H]2C(=O)N[C@@H](CN)C(=O)N[C@@H](CCC(=O)O)C(=O)N2C[C@H](O)C[C@H]2C(=O)N[C@@H](Cc2c[nH]c3ccccc23)C(=O)N[C@@H](CO)C(=O)N[C@@H](Cc2c[nH]c3ccccc23)C(=O)N1C [Example 5242] ({CH2CO}-Y[NMeA]NP[Dap]E[Hyp]WSW[NMeNle][NMeNle]ECG-NH2; thioether N-14)	1 to 9.9
CCCC[C@H]1C(=O)N(C)[C@@H](CCCC)C(=O)N[C@@H](CCC(=O)O)C(=O)N[C@H](C(=O)NCC(N)=O)CSCC(=O)N[C@@H](Cc2ccc(O)cc2)C(=O)N(C)[C@@H](C)C(=O)N[C@@H](CC(N)=O)C(=O)N2CCC[C@H]2C(=O)N[C@@H](CN)C(=O)N[C@@H](CCC(=O)O)C(=O)N2C[C@H](O)C[C@H]2C(=O)N[C@@H](Cc2c[nH]c3ccccc23)C(=O)N[C@@H](CCC(=O)O)C(=O)N[C@@H](Cc2c[nH]c3ccccc23)C(=O)N1C [Example 5243] ({CH2CO}-Y[NMeA]NP[Dap]E[Hyp]WEW[NMeNle][NMeNle]ECG-NH2; thioether N-14)	100 to 990
CCCC[C@H]1C(=O)N(C)[C@@H](CCCC)C(=O)N[C@@H](CCC(=O)O)C(=O)N[C@H](C(=O)NCC(N)=O)CSCC(=O)N[C@@H](Cc2ccc(O)cc2)C(=O)N(C)[C@@H](C)C(=O)N[C@@H](CC(=O)O)C(=O)N2CCC[C@H]2C(=O)N[C@@H](CN)C(=O)N[C@@H](CCC(N)=O)C(=O)N2C[C@H](O)C[C@H]2C(=O)N[C@@H](Cc2c[nH]c3ccccc23)C(=O)N[C@@H](CCC(=O)O)C(=O)N[C@@H](Cc2c[nH]c3ccccc23)C(=O)N1C [Example 5245] ({CH2CO}-Y[NMeA]DP[Dap]Q[Hyp]WEW[NMeNle][NMeNle]ECG-NH2; thioether N-14)	1 to 9.9
CCCC[C@H]1C(=O)N(C)[C@@H](CCCC)C(=O)N[C@@H](CCC(=O)O)C(=O)N[C@H](C(=O)NCC(N)=O)CSCC(=O)N[C@@H](Cc2ccc(O)cc2)C(=O)N(C)[C@@H](C)C(=O)N[C@@H](CC(=O)O)C(=O)N2CCC[C@H]2C(=O)N[C@@H](CN)C(=O)N[C@@H](CCC(N)=O)C(=O)N2C[C@H](O)C[C@H]2C(=O)N[C@@H](Cc2c[nH]c3ccccc23)C(=O)N[C@@H](CO)C(=O)N[C@@H](Cc2c[nH]c3ccccc23)C(=O)N1C [Example 5246] ({CH2CO}-Y[NMeA]DP[Dap]Q[Hyp]WSW[NMeNle][NMeNle]ECG-NH2; thioether N-14)	1 to 9.9
